ChEMBL document CHEMBL1149722, “Alkaloids from Psychotria oleoides with activity on growth hormone release” (J Nat Prod, 1992)
Activity calls are given as the source filed them. The rule behind the calls is not given here.

Species on record: Rattus norvegicus
Assay: Antagonist activity at SRIF in rat pituitary culture assessed as effect on growth hormone secretion
Format: functional

## CN1CC[C@]2(c3cccc4c3C[C@H]3N(C)CC[C@@]45[C@@H]4Nc6c([C@]78CCN(C)[C@H]7Nc7ccccc78)cccc6[C@]35CCN4C)c3ccccc3N[C@H]12
  Activity: Active
